This note sets out measurements from PubChem BioAssay (NCI).

Among the test systems are UO-31 renal; K-562 leukemia; KM12 colon; SN12C renal; SF-268 CNS; CCRF-CEM leukemia; HOP-62 NSCLC; RPMI-8226 leukemia; SK-MEL-5 melanoma; HCC-2998 colon; SK-MEL-28 melanoma.
What all share (experiment): inhibition of tumour cell growth, NCI panel, 48 h

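Five concentrations, 48 hours, 96-well plates. Abbreviation: GI50, concentration required for 50% inhibition of growth. TGI: total growth inhibition.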

For `CC(=O)c1cccc(Nc2nc3ccccc3c3[nH]c4ccccc4c23)c1`, the TGI in the assay with UO-31 renal was greater than 100 µM; in the assay on K-562 leukemia, greater than 100 µM; in the assay with KM12 colon it was greater than 100 µM; in the assay on SN12C renal, greater than 100 µM; with SF-268 CNS, 17.3 µM; in the assay with CCRF-CEM leukemia, greater than 100 µM. For the same compound, the TGI in the assay with HOP-62 NSCLC came out at 42 µM; with RPMI-8226 leukemia, 9.25 µM.
On to `Cc1cc(S(=O)(=O)NC2=NCC(C)(C)CN2)c(S)cc1Cl`, for which the TGI in the assay with UO-31 renal is 99.8 µM; in the assay on K-562 leukemia it was 80.5 µM; in the assay on SK-MEL-5 melanoma, 33.7 µM; in the assay on KM12 colon, greater than 100 µM; in the assay with SN12C renal it was greater than 100 µM; with SF-268 CNS it was greater than 100 µM. Also, the TGI in the assay with HOP-62 NSCLC, in the assay on HCC-2998 colon and in the assay with SK-MEL-28 melanoma was greater than 100 µM throughout.
For the compound `Cc1ccc(O)c(C2=NNC(c3cccc(Cl)c3)C2)c1` (configuration not stated), the TGI with UO-31 renal, in the assay on K-562 leukemia, with SK-MEL-5 melanoma, with KM12 colon, with SN12C renal and in the assay on SF-268 CNS was greater than 100 µM each time. Besides, the TGI with CCRF-CEM leukemia is greater than 100 µM; in the assay with HOP-62 NSCLC, greater than 100 µM; in the assay with RPMI-8226 leukemia, 88.3 µM.
Consider `CC(C)(C)NC(=S)N/N=C/c1ccccn1`, for which the TGI was greater than 47.8 µM in the assay on UO-31 renal; greater than 46.4 µM in the assay with SK-MEL-5 melanoma; greater than 100 µM in the assay with KM12 colon; greater than 96.1 µM in the assay with SN12C renal; greater than 100 µM in the assay with SF-268 CNS; greater than 79.8 µM with HOP-62 NSCLC. Besides, the TGI is greater than 100 µM in the assay with HCC-2998 colon, greater than 100 µM in the assay on SK-MEL-28 melanoma and 3.83 µM in the assay on RPMI-8226 leukemia.
For the compound `Oc1ccc(/C=N/c2nccs2)c(O)c1`, the TGI in the assay with UO-31 renal, in the assay on SK-MEL-5 melanoma, with KM12 colon, with SF-268 CNS, with HOP-62 NSCLC and in the assay with HCC-2998 colon was greater than 100 µM in each case.
For `CC1N=C(c2ccccc2)OC1=O` (configuration not stated), the TGI in the assay with UO-31 renal, with K-562 leukemia, with SK-MEL-5 melanoma, in the assay on KM12 colon, with SN12C renal and in the assay with SF-268 CNS was greater than 100 µM in each case. Also, the TGI in the assay on CCRF-CEM leukemia, with HOP-62 NSCLC, in the assay on SK-MEL-28 melanoma and in the assay on RPMI-8226 leukemia was greater than 100 µM each time.
As to `N[C@H]1CCN(c2c(F)cc3c(=O)c(C(=O)O)cn4c3c2Oc2c-4ccc3c2ccc2ccccc23)C1`, the TGI was greater than 71.3 µM with UO-31 renal; greater than 100 µM in the assay with SK-MEL-5 melanoma; greater than 62.7 µM in the assay with KM12 colon; greater than 100 µM in the assay with SN12C renal; greater than 100 µM in the assay on HOP-62 NSCLC; greater than 100 µM with SK-MEL-28 melanoma. Moreover, the TGI with RPMI-8226 leukemia stood at 4.11 µM.
With `Nc1ncc2c(n1)-c1ccccc1OC2N1CCOCC1` (configuration not stated), the TGI in the assay with UO-31 renal, with K-562 leukemia, in the assay with SK-MEL-5 melanoma, in the assay on KM12 colon, in the assay with SN12C renal and in the assay on SF-268 CNS was greater than 100 µM throughout. For the same compound, the TGI in the assay with CCRF-CEM leukemia, with HOP-62 NSCLC, with SK-MEL-28 melanoma and with RPMI-8226 leukemia was greater than 100 µM each time.
Consider `CCOC(=O)/C(=C\c1c(C)[nH]c2ccccc12)P(=O)(OCC)OCC`, for which the TGI in the assay on K-562 leukemia, in the assay with SK-MEL-5 melanoma, with KM12 colon, in the assay with SN12C renal, in the assay with SF-268 CNS and in the assay with HOP-62 NSCLC was greater than 100 µM each time. The TGI with HCC-2998 colon, in the assay with SK-MEL-28 melanoma and in the assay on RPMI-8226 leukemia was greater than 100 µM throughout.
Consider `Clc1ccc(N2N=C(c3cccc(Nc4ccncc4)c3)CC2c2ccc(Br)cc2)cc1` (configuration not stated), for which the GI50 is 1.41 µM in the assay on UO-31 renal, 1.73 µM in the assay on KM12 colon, 1.67 µM in the assay on SN12C renal and 3.43 µM in the assay on CCRF-CEM leukemia. Further, the TGI is 2.75 µM in the assay on UO-31 renal, 3.27 µM with KM12 colon, 3.21 µM in the assay on SN12C renal and greater than 100 µM in the assay with CCRF-CEM leukemia.
With `O=Cc1ccc(-c2ccc(S(=O)(=O)O)cc2)o1`, the TGI in the assay on UO-31 renal, in the assay on K-562 leukemia, in the assay with SK-MEL-5 melanoma, in the assay on KM12 colon, in the assay with SN12C renal and in the assay on SF-268 CNS was greater than 100 µM in each case. Moreover, the TGI in the assay with HCC-2998 colon, in the assay with SK-MEL-28 melanoma and in the assay with RPMI-8226 leukemia was greater than 100 µM each time.
In the case of `O=C(NC(CCCCN1C(=O)c2ccccc2C1=O)P(=O)(Oc1ccccc1)Oc1ccccc1)OCc1ccccc1` (configuration not stated), the TGI in the assay on UO-31 renal, with SK-MEL-5 melanoma, with KM12 colon, in the assay on SN12C renal, in the assay with SF-268 CNS and in the assay on HOP-62 NSCLC was greater than 100 µM throughout. In addition, the TGI in the assay on HCC-2998 colon, in the assay on SK-MEL-28 melanoma and in the assay on RPMI-8226 leukemia was greater than 100 µM each time.
For `CCCC(C(=O)Nc1cccc2[nH]cnc12)C(=O)OCC` (configuration not stated), the TGI in the assay on UO-31 renal, in the assay on K-562 leukemia, in the assay with KM12 colon, in the assay with SN12C renal, in the assay with SF-268 CNS and with HOP-62 NSCLC was greater than 100 µM in each case. The TGI in the assay with HCC-2998 colon, in the assay on SK-MEL-28 melanoma and with RPMI-8226 leukemia was greater than 100 µM in each case.
